One compound from patent publication US12357619B2, “Noradrenergic and specific serotonergic anxiolytic and antidepressant, method for the production and use thereof” (ALLA CHEM, LLC, priority 2020, dated 2025) can be followed below.

The subject of the data set is volunteers. In words: Safety of increasing doses, single and multiple dosing of capsules in volunteers (Example 11). In kind it is in vivo, human. The protocol: Example 11. Safety study of increasing doses of the oral drug of this invention made as a pharmaceutical composition of this invention in capsules. Clinical safety study of increasing doses of the antipsychotic drug made as a pharmaceutical composition of this invention in capsules for single and multiple dosing. The study covered one cohort of 4 volunteers taking antipsychotic drug once at a dose of 20 mg, and then at the same dose 2 times a day for 4 days. Based on the three-week safety data obtained in the 20-mg cohort taking antipsychotic drug twice a day, the independent safety data monitoring Committee took a decision to involve a second cohort of 4 volunteers, in which the antipsychotic drug under test was taken once at a dose of 20 mg and then 3 times a day for 4 days at the same dose.

The mark [1] stands for this setting: 20 mg once, then 20 mg 2 or 3 times a day for 4 days.

As for `Cc1ccc2c(c1)c1c(n2CCc2ccccc2)CCN(C)C1.Cl` [A•HCl, 2,8-dimethyl-5-(2-phenylethyl)-2,3,4,5-tetrahydro-1H-pyrido[4,3-b]indole hydrochloride], under setting [1], the “Adverse events associated with taking the drug” value is on record as “did not reveal any adverse events (AEs) associated with taking the drug”; the “Safety profile and tolerability” value was “favorable safety profile and good tolerability”. Also, the “Occurrence of AE by daily dose” value (40 mg and 60 mg daily dose cohorts) was “AE were observed only in volunteers who received a daily dose of 60 mg”.
